One assay relates to CB CD34+ RPS19sh cells. As to the kind of experiment: Erythroid differentiation of CB CD34+ progenitors transduced with shRNAs for RPS19. Format: cell-based, human. The protocol:
(FIG. 8A) The distribution of 1440 compounds by Z-score in a proliferation-based screen of the Sigma LOPAC chemical library. DBA CD34-5F cells were plated in erythroid-promoting conditions in 384-well format. Erythroid proliferation was measured in the presence of 5 μM of each compound, and converted into Z-scores. The screen was carried out with 3 RPS19 DBA and 2 normal iPSC lines. (FIG. 88) Dose-dependent effect of SMER28 (in μM) on erythroid differentiation, shown as the absolute number of erythroid cells in each drug-treated condition normalized to vehicle (DMSO) control. Erythroid cells were analyzed on day 9 of differentiation using markers CD71 and GlyA. […] (FIG. 8C) Absolute number of erythroid cells (analyzed on day 9) in each drug-treated condition normalized to vehicle (DMSO) control (4 independent experiments). […]
(FIG. 12A) Erythroid differentiation of control and DBA CD34-5F cells treated with DMSO vehicle or SMER28 (10 μM) during the initial CD34^+ progenitor phase (day 0-4 of differentiation), or stage I of erythroid culture (day 4-9 of differentiation). Percent of erythroid cells after stage I of differentiation is indicated in top left for each condition, and quantitated in (FIG. 12B). […] GFP^+ RPS19^sh and GFP^− control cells were quantitated separately. […] Arrows indicate enucleated RBCs, which are quantitated by flow cytometry. […]

Another assay has as its system DBA CD34-5F cells. Description: NSG mice transplanted with DBA CD34-5F progenitors, erythroid proportion of human graft. It is filed as in vivo. The method, then:
(FIG. 10A) SMER28 rescues RBC output in rps29^+/− zebrafish embryos. The level of hemoglobin in the yolk sac was visualized 40hpf with benzidine staining. Images are representative of the proportion of embryos indicated (of total counted). (FIG. 10B) Quantitation of SMER28 rescue for a range of 0.1-1 μM, with embryos grouped by high, medium, and low levels of hemoglobin staining. (FIG. 10C) Peripheral blood (PB) RBC counts and hematocrit in mice with irradiation-induced anemia. Mice were treated with the PEG400-based vehicle containing DMSO (VEH) (n=11), 1 mg/kg Dex (sodium-phosphate) (n=13), or 10 mg/kg SMER28 (n=9) for 3 weeks, bled, and assessed. Data are combined from 3 independent experiments. (FIG. 10D) Erythroid cells as proportion of the human graft in mice transplanted with DBA CD34-5F progenitors, and treated as in (FIG. 1c). (FIG. 10E) Levels of human engraftment in NSG mouse bone marrow (BM) transplanted with CB CD34^+ cells. Mice were treated with DMSO plus vehicle (VEH) (n=10), 1 mg/kg Dex (sodium-phosphate) (n=6), or 2 mg/kg SMER28 (n=11) for 4 weeks. (FIG. 10F) The proportion of erythroid, myeloid, and lymphoid (B cells) lineages within the human graft in vehicle- and SMER28-treated mice transplanted with CB CD34^+ cells. Only the effect on the erythroid lineage was significant. Data in FIGS. 10E-10G are pooled from 2 independent experiments. […]

The record followed here is patent publication US11980620B2, “Compounds and methods for treatment of Diamond Blackfan anemia” (THE CHILDREN'S MEDICAL CENTER CORPORATION, priority 2017, dated 2024).

Turning to `C=CCNc1ncnc2ccc(Br)cc12` [SMER28, 6-Bromo-N-2-propenyl-4-quinazolinam], in the assay on CB CD34+ RPS19sh cells (dose curve, highest activity at lower doses), the “erythroid output of RPS19sh cells” value is given as “robustly increased”. In the assay on CB CD34+ RPS19sh cells (treatment of undifferentiated CD34+ RPS19sh cells), the erythroid output entry is listed as “sufficient to improve erythroid output”. Further, the “output of GlyA+ RBCs from DBA CD34-5F cells” value in the assay on DBA CD34-5F cells is “increased”.
